In patent publication US20260262643A1, “HERBICIDAL BENZOXAZINES” (FMC CORPORATION, priority 2022, published 2026):

Key:
kochia [1] = experiment: Test C preemergence; format: in vivo, Bassia scoparia
How it was run: (§1)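 Greenhouse herbicide screen, 10-day duration. Test chemicals in solvent/surfactant blend were sprayed onto soil at sowing (pre) or onto 2–10 cm seedlings at one to two leaves (post); injury scored visually against controls, 0 no effect to 100 complete control.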

rice = experiment: Test D flooded paddy test; format: in vivo, Oryza sativa; details: 250 g ai/ha, applied to paddy water, visual rating after 13 to 14 days, scale 0 to 100 (0 no effect, 100 complete control)
How it was run: (§2)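 Plants grown to the 2-leaf stage; pots flooded to 3 cm above soil at treatment and held at that depth throughout. Test compounds applied directly to the paddy water. After 13 to 14 days in a greenhouse, response was rated visually versus controls on a 0 (no effect) to 100 (complete control) scale.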

corn [2] = experiment: Test C postemergence; format: in vivo, Zea mays; details: 10 days, 0 to 100 scale (0 no effect, 100 complete control)
How it was run: as §1

horseweed = experiment: Test C postemergence; format: in vivo, Erigeron canadensis; details: 10 days, 0 to 100 scale (0 no effect, 100 complete control)
How it was run: as §1

wheat [3] = experiment: Test C preemergence; format: in vivo, Triticum aestivum
How it was run: as §1

ragweed [4] = experiment: Test C preemergence; format: in vivo, Ambrosia artemisiifolia
How it was run: as §1

blackgrass [5] = experiment: Test C preemergence; format: in vivo, Alopecurus myosuroides
How it was run: as §1

ryegrass, Italian [6] = experiment: Test C postemergence; format: in vivo, Lolium multiflorum; details: 10 days, 0 to 100 scale (0 no effect, 100 complete control)
How it was run: as §1

oat, wild [7] = experiment: Test C postemergence; format: in vivo, Avena fatua; details: 10 days, 0 to 100 scale (0 no effect, 100 complete control)
How it was run: as §1

corn [8] = experiment: Test C preemergence; format: in vivo, Zea mays
How it was run: as §1

barnyardgrass [9] = experiment: Test D flooded paddy test; format: in vivo, Echinochloa crus-galli; details: 250 g ai/ha, applied to paddy water, visual rating after 13 to 14 days, scale 0 to 100 (0 no effect, 100 complete control)
How it was run: as §2

ragweed [10] = experiment: Test C postemergence; format: in vivo, Ambrosia artemisiifolia; details: 10 days, 0 to 100 scale (0 no effect, 100 complete control)
How it was run: as §1

soybean [11] = experiment: Test C preemergence; format: in vivo, Glycine max
How it was run: as §1

kochia [12] = experiment: Test C postemergence; format: in vivo, Bassia scoparia; details: 10 days, 0 to 100 scale (0 no effect, 100 complete control)
How it was run: as §1

barnyardgrass [13] = experiment: Test C preemergence; format: in vivo, Echinochloa crusgalli
How it was run: as §1

galium = experiment: Test C postemergence; format: in vivo, Galium aparine; details: 10 days, 0 to 100 scale (0 no effect, 100 complete control)
How it was run: as §1

sedge, umbrella = experiment: Test D flooded paddy test; format: in vivo, Cyperus difformis; details: 250 g ai/ha, applied to paddy water, visual rating after 13 to 14 days, scale 0 to 100 (0 no effect, 100 complete control)
How it was run: as §2

green foxtail [14] = experiment: Test C postemergence; format: in vivo, Setaria viridis; details: 10 days, 0 to 100 scale (0 no effect, 100 complete control)
How it was run: as §1

ryegrass, Italian [15] = experiment: Test C preemergence; format: in vivo, Lolium multiflorum
How it was run: as §1

pigweed, palmer [16] = experiment: Test C postemergence; format: in vivo, Amaranthus palmeri; details: 10 days, 0 to 100 scale (0 no effect, 100 complete control)
How it was run: as §1

pigweed, palmer [17] = experiment: Test C preemergence; format: in vivo, Amaranthus palmeri
How it was run: as §1

soybean [18] = experiment: Test C postemergence; format: in vivo, Glycine max; details: 10 days, 0 to 100 scale (0 no effect, 100 complete control)
How it was run: as §1

green foxtail [19] = experiment: Test C preemergence; format: in vivo, Setaria viridis
How it was run: as §1

blackgrass [20] = experiment: Test C postemergence; format: in vivo, Alopecurus myosuroides; details: 10 days, 0 to 100 scale (0 no effect, 100 complete control)
How it was run: as §1

ducksalad = experiment: Test D flooded paddy test; format: in vivo, Heteranthera limosa; details: 250 g ai/ha, applied to paddy water, visual rating after 13 to 14 days, scale 0 to 100 (0 no effect, 100 complete control)
How it was run: as §2

barnyardgrass [21] = experiment: Test C postemergence; format: in vivo, Echinochloa crusgalli; details: 10 days, 0 to 100 scale (0 no effect, 100 complete control)
How it was run: as §1

wheat [22] = experiment: Test C postemergence; format: in vivo, Triticum aestivum; details: 10 days, 0 to 100 scale (0 no effect, 100 complete control)
How it was run: as §1

oat, wild [23] = experiment: Test C preemergence; format: in vivo, Avena fatua
How it was run: as §1

[24] = 500 g ai/ha, preemergence, 0 to 100 scale (0 no effect, 100 complete control)
[25] = Preemergence, 125 g ai/ha, 0 to 100 scale, 0 no effect, 100 complete control

Cc1ncn(-c2ccc(C)c(C(=O)N3CC(C(F)(F)F)Oc4c(Cl)cccc43)c2)n1 (stereo not shown) [Compound 349]
Kochia plant response rating (kochia [1]; [24]): 90
Plant response rating, Kochia (kochia [1]; [25]): 80
Plant response rating, Rice (Flood) (rice): 0
Plant response rating, Corn (corn [2]; 500 g ai/ha, postemergence): 90
Plant response rating, Corn (corn [2]; Postemergence, 125 g ai/ha): 80
Plant response rating, Horseweed (horseweed; 500 g ai/ha, postemergence): 50
Plant response rating, Horseweed (horseweed; Postemergence, 125 g ai/ha): 10
Wheat plant response rating (wheat [3]; [24]): 70
Plant response rating, Wheat (wheat [3]; [25]): 20
Ragweed plant response rating (ragweed [4]; [24]): 80
Plant response rating, Ragweed (ragweed [4]; [25]): 20
Blackgrass plant response rating (blackgrass [5]; [24]): 80
Plant response rating, Blackgrass (blackgrass [5]; [25]): 50
Plant response rating, Ryegrass, Italian (ryegrass, Italian [6]; 500 g ai/ha, postemergence): 80
Plant response rating, Ryegrass, Italian (ryegrass, Italian [6]; Postemergence, 125 g ai/ha): 50
Plant response rating, Oat, Wild (oat, wild [7]; 500 g ai/ha, postemergence): 70
Plant response rating, Oat, Wild (oat, wild [7]; Postemergence, 125 g ai/ha): 30
Corn plant response rating (corn [8]; [24]): 60
Plant response rating, Corn (corn [8]; [25]): 40
Plant response rating, Barnyardgrass (Flood) (barnyardgrass [9]): 0
Plant response rating, Ragweed (ragweed [10]; 500 g ai/ha, postemergence): 40
Plant response rating, Ragweed (ragweed [10]; Postemergence, 125 g ai/ha): 30
Soybean plant response rating (soybean [11]; [24]): 100
Plant response rating, Soybean (soybean [11]; [25]): 50
Plant response rating, Kochia (kochia [12]; 500 g ai/ha, postemergence): 90
Plant response rating, Kochia (kochia [12]; Postemergence, 125 g ai/ha): 80
Barnyardgrass plant response rating (barnyardgrass [13]; [24]): 100
Plant response rating, Barnyardgrass (barnyardgrass [13]; [25]): 70
Plant response rating, Galium (galium; 500 g ai/ha, postemergence): 100
Plant response rating, Galium (galium; Postemergence, 125 g ai/ha): 100
Plant response rating, Sedge, Umbrella (Flood) (sedge, umbrella): 95
Plant response rating, Foxtail, Green (green foxtail [14]; 500 g ai/ha, postemergence): 90
Plant response rating, Foxtail, Green (green foxtail [14]; Postemergence, 125 g ai/ha): 70
Ryegrass, Italian plant response rating (ryegrass, Italian [15]; [24]): 100
Plant response rating, Ryegrass, Italian (ryegrass, Italian [15]; [25]): 100
Plant response rating, Pigweed, Palmer (pigweed, palmer [16]; 500 g ai/ha, postemergence): 90
Plant response rating, Pigweed, Palmer (pigweed, palmer [16]; Postemergence, 125 g ai/ha): 50
Pigweed, Palmer plant response rating (pigweed, palmer [17]; [24]): 100
Plant response rating, Pigweed, Palmer (pigweed, palmer [17]; [25]): 100
Plant response rating, Soybean (soybean [18]; 500 g ai/ha, postemergence): 100
Plant response rating, Soybean (soybean [18]; Postemergence, 125 g ai/ha): 100
Foxtail, Green plant response rating (green foxtail [19]; [24]): 100
Plant response rating, Foxtail, Green (green foxtail [19]; [25]): 100
Plant response rating, Blackgrass (blackgrass [20]; 500 g ai/ha, postemergence): 100
Plant response rating, Blackgrass (blackgrass [20]; Postemergence, 125 g ai/ha): 90
Plant response rating, Ducksalad (Flood) (ducksalad): 0
Plant response rating, Barnyardgrass (barnyardgrass [21]; 500 g ai/ha, postemergence): 90
Plant response rating, Barnyardgrass (barnyardgrass [21]; Postemergence, 125 g ai/ha): 30
Plant response rating, Wheat (wheat [22]; 500 g ai/ha, postemergence): 80
Plant response rating, Wheat (wheat [22]; Postemergence, 125 g ai/ha): 30
Oat, Wild plant response rating (oat, wild [23]; [24]): 90
Plant response rating, Oat, Wild (oat, wild [23]; [25]): 20
